Test results published in patent EP0550008A2, “Use of N-acyl derivatives of aminoalcohols with polycarboxylic acids for the manufacture of a medicament for the treatment of pathologies relating to mast cells” (LIFEGROUP S.p.A., priority 1991, dated 1993).

Key:
solubility in water = type: physicochemical
[1] = solubility in organic solvents; type: physicochemical; conditions: organic solvent or mixture
mast cells degranulation [2] = assay: in vivo mast cell degranulation induced by substance P in the auricular pinna, intradermal (local) pretreatment; set-up: species or system Sprague Pawley rats; conditions: compound 0.5 mg/kg intradermal on the auricular pinna, substance P (10⁻⁴ M) intradermal after 10 minutes, sacrifice 30' later
Method: (§1) • 2 weeks old Sprague Pawley rats, provided by Charles River from Calco, were locally treated by intradermal injection on the auricular pinna with the compounds in question at the dose of 0.5mg/kg, in a buffered aqueous solution at physiological pH. After 10 minutes a local administration, still by intradermal route, followed, of the substance P (10⁻⁴ M), able to induce a mast cells degranulation response. After 30' from the subtance P administration, the animals were sacrificed and the relative tissue samples (pinna) were taken, for an analysis of the morphological aspect of the mast cells residing in the connectival tissues after fixation and coloration with toluidine blue. The inhibition degree in mast cells degranulation in the tissues of the animals treated with the compounds under question, and compared with those of animals treated only with the physiological degranulation factor (substance P) was considered as a parameter for the biological activity.

mast cells degranulation [3] = assay: in vivo mast cell degranulation induced by substance P in the auricular pinna, systemic subcutaneous pretreatment; set-up: species or system Sprague Dawley rats
Method: as §1, with “Pawley” left out, “(10^-4” for “(10⁻⁴”, “activity. […] The pharmacologic activity of the compounds under question was also verified under conditions of a systemic subcutaneous administration. In this case the animals were firstly treated with 20 mg/kg of the substances under question and after 30 minutes were exposed to the degranulation stimulus with the substance P (10^-6 M) in the auricular pinna. Then we proceeded as previously described. In Tab.2 the obtained results are reported on an average of 500-800 cells. Tab.2” for “activity.”

[4] = tested on: Peritoneal mast cells of rat; assay: in vitro degranulation of cultured peritoneal mast cells stimulated with substance P; type: cell-based
Method: Peritoneal mast cells of rat were taken according to the standard methodology described by Lagunoff (1975, Tech. Biochem. Biophys. Morphol. , 2, pp. 289-305).
The cells were then cultured in MEM which 10% fetal calf serum was added to and then incubated in a Haereus^R incubator for 30 minutes.
The derivatives under question at the concentration of 10⁻⁵ M were added to the incubation medium .
At the end of the incubation the physiological degranulation stimulus represented by the substance P (10⁻⁴) was added.
The cells were then centrifugated in order to remove the supernatant formed by the incubation medium and placed onto the slide after coloration with toluidine blue, for the analysis of the morphological aspect at the optical microcope.
Also under these conditions the parameter to be considered was the percentage of degranulated cells after stimulation with the Substance P.

[5] = compound 20 mg/kg subcutaneous, substance P (10⁻⁶ M) in the auricular pinna after 30 minutes, average of 500-800 cells
[6] = compound 10⁻⁵ M in the incubation medium, 30 minutes, then substance P (10⁻⁴)

Row | SMILES | solubility (solubility in water) [µg/mL] | solubility ([1]; in DMSO) [µg/mL] | % of cells undergoing degranulation (mast cells degranulation [3]; [5]) [%] | further results
1 | O=C(NCCO)c1cc(=O)c2c(OCC(O)COc3cccc4oc(C(=O)NCCO)cc(=O)c34)cccc2o1 [(11), N,N'-bis (2-hydroxyethyl)-cromoglycholyldiamide] | > 10000 | > 10000 | 28.6 | –
2 | CC(O)CNC(=O)/C=C/C(=O)NCC(C)O (stereo not shown) [(10), N,N'-bis (2-hydroxypropyl)-fumaroyldiamide] | > 10000 | > 10000 | 38 | –
3 | CSCC[C@H](NC(=O)[C@H](CC(C)C)NC(=O)CNC(=O)[C@H](Cc1ccccc1)NC(=O)[C@H](Cc1ccccc1)NC(=O)[C@H](CCC(N)=O)NC(=O)[C@H](CCC(N)=O)NC(=O)[C@@H]1CCCN1C(=O)[C@H](CCCCN)NC(=O)[C@@H]1CCCN1C(=O)[C@@H](N)CCCNC(=N)N)C(N)=O [substance P, reference compound] | – | – | – | % of cells undergoing degranulation (mast cells degranulation [3]; substance P (10⁻⁶ M) in the auricular pinna alone, no pretreatment): 92%; % of cells undergoing degranulation ([4]; substance P (10⁻⁴) alone): 96%
4 | O=C(/C=C/C(=O)N(CCO)CCO)N(CCO)CCO [(2), N,N,N',N'-tetra (2-hydroxyethyl)-fumaroyl-diamide] | > 10000 | > 10000 | 32 | solubility ([1]; in hot ethanol): > 10000 µg/mL; % of cells undergoing degranulation [4, 6]: 30%
5 | O=C(/C=C/CCCCCCCCC(=O)NCCO)NCCO [(6), N,N'-bis (2-hydroxyethyl)trans-2-dodecendiamide] | – | > 10000 | 33.6 | solubility (solubility in water; at 95 °C): > 10000 µg/mL; solubility ([1]; in ethanol): > 10000 µg/mL
6 | O=C(CCCCCCCC(=O)NCCO)NCCO [(3), N,N'-bis-(2-hydroxyethyl)-nonandiamide] | – | – | 30 | solubility ([1]; solvent not stated): > 10000 µg/mL; % of cells undergoing degranulation (mast cells degranulation [2]): 30%; % of cells undergoing degranulation [4, 6]: 30%
7 | O=C(NCCO)c1ccccc1C(=O)NCCO [(13), N,N' -bis (2-hydroxyethyl)-phthaloyldiamide] | > 10000 | – | 35.5 | solubility ([1]; in ethanol): > 10000 µg/mL

The next lines start with results.

Row | solubility (solubility in water) [µg/mL] | solubility ([1]; in DMSO) [µg/mL] | SMILES | % of cells undergoing degranulation (mast cells degranulation [3]; [5]) [%] | further results
8 | < 20000 | < 20000 | O=C(/C=C/C(=O)NCCO)NCCO [(1), N-fumaroylethanolamide] | 28 | solubility ([1]; in hot ethanol): < 20000 µg/mL; % of cells undergoing degranulation (mast cells degranulation [2]): 40%; % of cells undergoing degranulation [4, 6]: 35%
9 | > 10000 | > 10000 | O=C(CCCC(=O)NCCO)NCCO [(15), N,N'-bis-(2-hydroxyethyl)-glutaroyldiamide] | 30 | –
10 | > 10000 | > 10000 | NC(CC(=O)NCCO)C(=O)NCCO (stereo not shown) [(12), N,N'-bis (2-hydroxyethyl)-aspartyldiamide] | 30 | –
11 | > 10000 | > 10000 | O=C(CC(O)C(=O)NCCO)NCCO (racemic) [(8), N,N'-bis (2-hydroxyethyl)-(+/-)2-hydroxysuccinimide] | 31 | –
12 | – | > 10000 | O=C(CCC(=O)NCCO)NCCO [(4), N,N'-bis-(2-hydroxyethyl)-succinamide] | 32 | % of cells undergoing degranulation [4, 6]: 35%
13 | > 10000 | > 10000 | O=C(NCCO)C(=O)NCCO [(5), N,N'-bis(2-hydroxyethyl)-oxalyldiamide] | 45.5 | –
14 | > 10000 | > 5000 | O=C(CC(=O)NCCO)NCCO [(7), N,N' -(2-hydroxyethyl)-malondiamide] | 35 | solubility ([1]; in ethanol): > 10000 µg/mL
15 | > 10000 | > 10000 | O=C(/C=C/C=C/C(=O)NCCO)NCCO [(14), N,N'-bis (2-hydroxyethyl)-trans,trans-muconoyldiamide] | 40.2 | –
16 | > 10000 | > 10000 | O=C(NCCO)[C@H](O)[C@@H](O)C(=O)NCCO [(9), (R,R)-(+) 2,3-dihydroxy-N,N'-bis (2-hydroxyethyl)-succinamide] | 32 | –
